Laboratory results taken from patent publication US20240076285A1, “COMPOUNDS AND COMPOSITIONS FOR TREATING CONDITIONS ASSOCIATED WITH STING ACTIVITY” (IFM Due, Inc., priority 2020, published 2024).
pEC50: −log10 of the molar value.

Molecular target: T1, hSTING (Homo sapiens, UniProt Q86WV6, G230A/H232R/R293Q/R71H)
T1 construct: host or cells: THP1-Dual KO-IFNAR2 cells
Assay: STING reporter assay in THP1-Dual KO-IFNAR2 cells (2'3'cGAMP stimulation, luciferase reporter)
Assay type: cell-based
Details: 15 μM 2'3'cGAMP, 24 h
Description: STING pathway activation by the compounds described herein was measured using THP1-Dual™ cells (KO-IFNAR2).
THP1-Dual™ KO-IFNAR2 Cells (obtained from invivogen) were maintained in RPMI, 10% FCS, 5 ml P/S, 2 mM L-glut, 10 mM Hepes, and 1 mM sodium pyruvate. Compounds were spotted in empty 384 well tissue culture plates (Greiner 781182) by Echo for a final concentration of 0.0017-100 μM. Cells were plated into the TC plates at 40 μL per well, 2×10E6 cells/mL. For activation with STING ligand, 2′3′cGAMP (MW 718.38, obtained from Invivogen), was prepared in Optimem media.
The following solutions were prepared for each 1×384 plate: • Solution A: 2 mL Optimem with one of the following stimuli: • 60 μL of 10 mM 2′3′cGAMP→150 μM stock • Solution B: 2 mL Optimem with 60 μL Lipofectamine 2000→Incubate 5 min at RT
2 mL of solution A and 2 ml Solution B was mixed and incubated for 20 min at room temperature (RT). 20 μL of transfection solution (A+B) was added on top of the plated cells, with a final 2′3′cGAMP concentration of 15 μM. The plates were then centrifuged immediately at 340 g for 1 minute, after which they were incubated at 37° C., 5% CO2, >98% humidity for 24 h. Luciferase reporter activity was then measured. EC50 values were calculated by using standard methods known in the art.
Luciferase reporter assay: 10 μL of supernatant from the assay was transferred to white 384-plate with flat bottom and squared wells. One pouch of QUANTI-Luc™ Plus was dissolved in 25 mL of water. 100 μL of QLC Stabilizer per 25 mL of QUANTI-Luc™ Plus solution was added. 50 μL of QUANTI-Luc™ Plus/QLC solution per well was then added. Luminescence was measured on a Platereader (e.g., Spectramax I3X (Molecular Devices GF3637001)).
Luciferase reporter activity was then measured. EC50 values were calculated by using standard methods known in the art.

T1 sequence (Q86WV6 whole entry R71H/G230A/H232R/R293Q): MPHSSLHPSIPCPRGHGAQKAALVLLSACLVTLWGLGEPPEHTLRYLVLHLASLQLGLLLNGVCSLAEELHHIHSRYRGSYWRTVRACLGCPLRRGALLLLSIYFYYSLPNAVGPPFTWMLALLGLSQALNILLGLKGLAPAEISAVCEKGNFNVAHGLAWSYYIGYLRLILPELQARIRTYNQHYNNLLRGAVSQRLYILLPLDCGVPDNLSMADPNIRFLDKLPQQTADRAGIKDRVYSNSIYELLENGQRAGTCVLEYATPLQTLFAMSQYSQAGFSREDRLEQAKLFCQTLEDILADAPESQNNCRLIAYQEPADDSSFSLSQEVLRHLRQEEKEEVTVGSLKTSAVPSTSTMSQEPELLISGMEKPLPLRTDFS

pEC50 (class symbols)	pEC50 (numeric bound)	Compound
6.00 to 6.70		N#Cc1cc(Nc2ccc(C(F)(F)F)c(F)c2)cc(Nc2ccc3cc[nH]c3c2)n1 [Compound 104, 4-{[3-fluoro-4-(trifluoromethyl)phenyl]amino}-6-[(1H-indol-6-yl)amino]pyridine-2-carbonitrile]
5.30 to 6.00		N#Cc1cc(Nc2cncc(Cl)c2)cc(Nc2ccc3cc[nH]c3c2)n1 [Compound 109, 4-[(5-chloropyridin-3-yl)amino]-6-[(1H-indol-6-yl)amino]pyridine-2-carbonitrile]
6.00 to 6.70		N#Cc1cc(Nc2cc(F)cc(C(F)(F)F)c2)cc(Nc2ccc3cc[nH]c3c2)n1 [Compound 110, 4-{[3-fluoro-5-(trifluoromethyl)phenyl]amino} 6-[(1H-indol-6-yl)amino]pyridine-2-carbonitrile]
6.00 to 6.70		COc1cc(Cl)cc(Nc2cc(C#N)nc(Nc3ccc4cc[nH]c4c3)c2)c1 [Compound 112, 4-[(3-chloro-5-methoxyphenyl)amino]-6-[(1H-indol-6-yl)amino]pyridine-2-carbonitrile]
5.30 to 6.00		CC(C)(C)c1cncc(Nc2cc(C#N)nc(Nc3ccc4cc[nH]c4c3)c2)c1 [Compound 115, 4-[(5-tert-butylpyridin-3-yl)amino]-6-[(1H-indol-6-yl)amino]pyridine-2-carbonitrile]
6.00 to 6.70		N#Cc1cc(Nc2ccc(F)c(F)c2)cc(Nc2ccc3cc[nH]c3c2)n1 [Compound 116, 4-[(3,4-difluorophenyl)amino]-6-[(1H-indol-6-yl)amino]pyridine-2-carbonitrile]
6.00 to 6.70		N#Cc1cc(Nc2ccc3c(c2)OC(F)(F)O3)cc(Nc2ccc3cc[nH]c3c2)n1 [Compound 117, 4-[(2,2-difluoro-2H-1,3-benzodioxol-5-yl)amino]-6-[(1H-indol-6-yl)amino]pyridine-2-carbonitrile]
6.00 to 6.70		N#Cc1cc(Nc2ccc(OC(F)(F)F)nc2)cc(Nc2ccc3cc[nH]c3c2)n1 [Compound 125, 6-[(1H-indol-6-yl)amino]-4-{[6-(trifluoromethoxy)pyridin-3-yl]amino}pyridine-2-carbonitrile]
6.00 to 6.70		N#Cc1cc(Nc2ccc(OCC(F)(F)F)nc2)cc(Nc2ccc3cc[nH]c3c2)n1 [Compound 127, 6-[(1H-indol-6-yl)amino]-4-{[6-(2,2,2-trifluoroethoxy)pyridin-3-yl]amino}pyridine-2-carbonitrile]
5.30 to 6.00		N#Cc1cc(Nc2cncc(F)c2)cc(Nc2ccc3cc[nH]c3c2)n1 [Compound 129, 4-[(5-fluoropyridin-3-yl)amino]-6-[(1H-indol-6-yl)amino]pyridine-2-carbonitrile]
6.00 to 6.70		N#Cc1cc(Nc2ccc(C(F)(F)F)nc2)cc(Nc2ccc3cc[nH]c3c2)n1 [Compound 130, 6-[(1H-indol-6-yl)amino]-4-{[6-(trifluoromethyl)pyridin-3-yl]amino}pyridine-2-carbonitrile]
4.00 to 5.30		CNC(=O)c1ccc(Nc2cc(C#N)nc(Nc3ccc4cc[nH]c4c3)c2)cc1F [Compound 132, 4-({2-cyano-6-[(1H-indol-6-yl)amino]pyridin-4-yl}amino)-2-fluoro-N-methylbenzamide]
6.00 to 6.70		N#Cc1cc(Nc2ccc(C(F)(F)F)c(Cl)c2)cc(Nc2ccc3cc[nH]c3c2)n1 [Compound 133, 4-{[3-chloro-4-(trifluoromethyl)phenyl]amino}-6-[(1H-indol-6-yl)amino]pyridine-2-carbonitrile]
6.00 to 6.70		N#Cc1cc(Nc2cc(Cl)cc(OC(F)(F)F)c2)cc(Nc2ccc3cc[nH]c3c2)n1 [Compound 134, 4-{[3-chloro-5-(trifluoromethoxy)phenyl]amino}-6-[(1H-indol-6-yl)amino]pyridine-2-carbonitrile]

Further lines, the compound ahead of its results:

Compound	pEC50 (class symbols)	pEC50 (numeric bound)
N#Cc1cc(Nc2ccc3c(c2)CC(=O)N3)cc(Nc2ccc3cc[nH]c3c2)n1 [Compound 101, 6-[(1H-indol-6-yl)amino]-4-[(2-oxo-2,3-dihydro-1H-indol-5-yl)amino]pyridine-2-carbonitrile]	4.00 to 5.30	
Cc1ccc(Nc2cc(C#N)nc(Nc3ccc4cc[nH]c4c3)c2)cn1 [Compound 102, 6-[(1H-indol-6-yl)amino]-4-[(6-methylpyridin-3-yl)amino]pyridine-2-carbonitrile]		< 4.52
COC1CCN(c2cc(C#N)nc(Nc3ccc4cc[nH]c4c3)c2)CC1 [Compound 103, 6-[(1H-indol-6-yl)amino]-4-(4-methoxypiperidin-1-yl)pyridine-2-carbonitrile]		< 4.52
Cc1nc2ccc(Nc3cc(C#N)nc(Nc4ccc5cc[nH]c5c4)c3)cc2s1 [Compound 105, 6-[(1H-indol-6-yl)amino]-4-[(2-methyl-1,3-benzothiazol-6-yl)amino]pyridine-2-carbonitrile]	5.30 to 6.00	
N#Cc1cc(N2CCC(F)(F)CC2)cc(Nc2ccc3cc[nH]c3c2)n1 [Compound 106, 4-(4,4-difluoropiperidin-1-yl)-6-[(1H-indol-6-yl)amino]pyridine-2-carbonitrile]		< 4.52
Cc1nc2cc(Nc3cc(C#N)nc(Nc4ccc5cc[nH]c5c4)c3)ccc2s1 [Compound 107, 6-[(1H-indol-6-yl)amino]-4-[(2-methyl-1,3-benzothiazol-5-yl)amino]pyridine-2-carbonitrile]	5.30 to 6.00	
Cc1nn(C)c2ccc(Nc3cc(C#N)nc(Nc4ccc5cc[nH]c5c4)c3)cc12 [Compound 108, 4-[(1,3-dimethyl-1H-indazol-5-yl)amino]-6-[(1H-indol-6-yl)amino]pyridine-2-carbonitrile]	5.30 to 6.00	
CCc1ccc(Nc2cc(C#N)nc(Nc3ccc4cc[nH]c4c3)c2)cn1 [Compound 111, 4-[(6-ethylpyridin-3-yl)amino]-6-[(1H-indol-6-yl)amino]pyridine-2-carbonitrile]	5.30 to 6.00	
CC(C)CN1CCN(c2cc(C#N)nc(Nc3ccc4cc[nH]c4c3)c2)CC1 [Compound 113, 6-[(1H-indol-6-yl)amino]-4-[4-(2-methylpropyl)piperazin-1-yl]pyridine-2-carbonitrile]	5.30 to 6.00	
N#Cc1cc(N2CCOCC2)cc(Nc2ccc3cc[nH]c3c2)n1 [Compound 114, 6-[(1H-indol-6-yl)amino]-4-(morpholin-4-yl)pyridine-2-carbonitrile]	4.00 to 5.30	
N#Cc1cc(N2CCC(C(F)(F)F)CC2)cc(Nc2ccc3cc[nH]c3c2)n1 [Compound 118, 6-[(1H-indol-6-yl)amino]-4-[4-(trifluoromethyl)piperidin-1-yl]pyridine-2-carbonitrile]	5.30 to 6.00	
N#Cc1cc(N2CCC(Oc3ccccc3)CC2)cc(Nc2ccc3cc[nH]c3c2)n1 [Compound 119, 6-[(1H-indol-6-yl)amino]-4-(4-phenoxypiperidin-1-yl)pyridine-2-carbonitrile]	6.00 to 6.70	
N#Cc1cc(N2CCN(CC(F)(F)F)CC2)cc(Nc2ccc3cc[nH]c3c2)n1 [Compound 120, 6-[(1H-indol-6-yl)amino]-4-[4-(2,2,2-trifluoroethyl)piperazin-1-yl]pyridine-2-carbonitrile]	4.00 to 5.30	
CN1CCN(c2cc(C#N)nc(Nc3ccc4cc[nH]c4c3)c2)CC1 [Compound 121, 6-((1H-indol-6-yl)amino)-4-(4-methylpiperazin-1-yl)picolinonitrile]		< 4.52
CC1(C)C(=O)Nc2cc(Nc3cc(C#N)nc(Nc4ccc5cc[nH]c5c4)c3)ccc21 [Compound 122, 4-[(3,3-dimethyl-2-oxo-2,3-dihydro-1H-indol-6-yl)amino]-6-[(1H-indol-6-yl)amino]pyridine-2-carbonitrile]	5.30 to 6.00	
N#Cc1cc(Nc2ccc3c(c2)C(=O)NC3)cc(Nc2ccc3cc[nH]c3c2)n1 [Compound 123, 6-[(1H-indol-6-yl)amino]-4-[(3-oxo-2,3-dihydro-1H-isoindol-5-yl)amino]pyridine-2-carbonitrile]	4.00 to 5.30	
CC(C)c1cncc(Nc2cc(C#N)nc(Nc3ccc4cc[nH]c4c3)c2)c1 [Compound 124, 6-[(1H-indol-6-yl)amino]-4-{[5-(propan-2-yl)pyridin-3-yl]amino}pyridine-2-carbonitrile]	6.00 to 6.70	
N#Cc1cc(Nc2ccc(OC(F)F)nc2)cc(Nc2ccc3cc[nH]c3c2)n1 [Compound 126, 4-{[6-(difluoromethoxy)pyridin-3-yl]amino}-6-[(1H-indol-6-yl)amino]pyridine-2-carbonitrile]	6.00 to 6.70	
COc1cc(Nc2cc(C#N)nc(Nc3ccc4cc[nH]c4c3)c2)cnc1Cl [Compound 128, 4-[(6-chloro-5-methoxypyridin-3-yl)amino]-6-[(1H-indol-6-yl)amino]pyridine-2-carbonitrile]	5.30 to 6.00	
COc1ccc(Nc2cc(C#N)nc(Nc3ccc4cc[nH]c4c3)c2)cn1 [Compound 131, 6-[(1H-indol-6-yl)amino]-4-[(6-methoxypyridin-3-yl)amino]pyridine-2-carbonitrile]	5.30 to 6.00	
